Counter-ions that a name gives are not always drawn. Like-named read-outs stand apart in the source and are kept apart here. Marks after values point to notes of the source that are not given here.
How the values were obtained:
[1] = system: human double-hit lymphoma SU-DHL-6 cell line xenografts; experiment: Oral versus intravenous administration study in SU-DHL-6 xenografts; details: for Number End/begin / RTV / Tumor Weight (g) X ±SD / Tumor Weight Inhibition (%) / Tumor volume T/C% / animal status / deaths: 16 days; for Body weight (g) X ± SD Begin / Tumor volume (mm^3) X ±SD Begin: begin of treatment; for Body Weight (g) X ±SD End / Tumor volume (mm^3) X ±SD End: end of 16 days treatment; for animal status / deaths: 10 mg/kg
Experimental: To determine whether PM is suitable for oral or intravenous administration, the anti-tumor activity and the safety were investigated in a human double-hit lymphoma SU-DHL-6 cell line xenografts established in immunodeficiency mice. Each mouse was injected subcutaneously with 0.1 mL of cell suspension containing 1×10^6 cells. […] Tumor size and body weight were measured during the experimental period and the tumor volumes were calculated according to the formula: volume (mm^3) = length × width^2 × 0.5. When the experimental period was over, all the mice were sacrificed, and the tumor was weighed and photographed.

[2] = In vivo pharmacokinetics after oral or intravenous administration; details: SD rats, 10 mg/kg; for Cmax: read-out: maximum value (Cmax) of plasma concentration
Experimental: Adult SD rats (180–220 g) were used to investigate the in vivo kinetics of PM after oral or intravenous administration. The rats were fasted overnight and divided into oral and intravenous groups, containing three male and three female rats in each group. Then, 10 mg/kg of PM was administered in each rat. 0.2 mL of jugular vein blood samples were collected at a predetermined time interval of 0, 5, 15, 30, 60, 120, 240, 360, 480, and 600 min, centrifuged at 1500 rpm for 15 min at 4 °C to separate the plasma, and stored at −80 °C for the analysis by UPLC-MS. After the test, Phoenix WinNonlin software and non-compartmental analysis were used to calculate parameters such as maximum plasma concentration (Cmax), plasma clearance (CL), time to achieve maximum plasma concentration (Tmax), steady-state apparent distribution volume (Vdss), elimination half-life (t1/2), area under the concentration-time curve (AUC), and related bioavailability.

[3] = system: SU-DHL-6 cells; experiment: In vitro cytotoxicity study (MTT); assay type: cell-based; details: Homo sapiens, 48 h
Experimental: To investigate the anti-tumour proliferation effect of PM/HP-β-CD, in vitro cytotoxicity test was performed. After being seeded with 96-well plates, the in vitro cultured cells were allowed to acclimate for about 1 h. The experimental group was added with 100 μL of medium containing free PM, HP-β-CD, or PM/HP-β-CD with different concentrations, and the control group was added with an equal volume of fresh medium. Each group was set up with 3 parallel holes and a cultured incubator with 5% CO2 at 37 °C. At 48 h, the survival rate of each group was calculated with the MTT method, and the IC50 value was fitted.

[4] = system: SU-DHL-6 cells; experiment: Annexin V-FITC/PI flow cytometry apoptosis assay; assay type: cell-based, human; details: 48 h
Experimental: The pro-apoptotic effect of the PM/HP-β-CD complex on SU-DHL-6 cells was investigated by flow cytometry. […] cells in good condition were collected and inoculated in the six-well plate with 2⋄10^5 cells per well. After being cultured for 24 h, cells were treated with PM and PM/HP-β-CD inclusion at 3 nM and 6 nM, using LBH589 at 6 nM as the positive control. The cells without drug treatment were the negative control. After 48 h incubation, the cells were then processed by annexin V-FITC/PI staining as the manufacturer’s instructions (KeyGen, 100 assays).

[5] = system: γH2AX; experiment: Immunohistochemical detection of γH2AX in tumour tissue; assay type: in vivo, NOD/SCID mice; details: immunostaining after PM treatment, SU-DHL-6 subcutaneous tumour
Description: (§1) The proliferation of tumour cells was detected by immune histochemical staining with the primary antibody of Ki-67 (Lab Vision, MA, USA). DNA double-stranded breaks were investigated by staining with the primary antibody of H2A histone family member X (γH2AX, Upstate Biotechnology, Lake Placid, NY, USA). Primary antibodies of acetyl histone H4 (Ac-H4, Upstate Biotechnology, Lake Placid, NY, USA) were used to detect the acetylation of Histone H4. FITC-labelled secondary antibodies (F-0382; Sigma) were applied with a concentration of 1:500. The images were taken with the Nikon E800 scope.

[6] = system: SU-DHL-6 subcutaneous tumours; experiment: Survival study in satellite groups of the SU-DHL-6 subcutaneous model; assay type: in vivo, NOD/SCID mice; details: long-term treatment, death criterion tumour volume 3000 mm^3 or death
Experimental: (§2) To better determine the anti-tumour activity of the PM/HP-β-CD complex, the SU-DHL-6 cell line xenografts were established in immunodeficiency mice. The NOD/SCID mice were subcutaneously inoculated 7 × 10^6 cells per mouse. […] A mimic of HyperCVAD regimen, standard chemotherapy for B cell lymphoma ([22],[23]), especially aggressive subtypes, for example, double-hit lymphoma, was set as a positive control group for comparison (Table 2). Satellite groups were set up in the 10 mg/kg group, 20 mg/kg group, and the Hyper-CVAD group. Animals in the satellite groups were not sacrificed at the end of the treatment and underwent long-term treatment for further investigation. In the survival study, the animal mortality criterion was that the tumour volume reached 3000 mm^3 or the individual animal died, and the animal survival time was statistically analysed.

[7] = Phase solubility analysis of PM in HP-β-CD solutions; assay type: physicochemical; details: inclusion of PM by HP-β-CD
Experimental: Excess PM were added into 6 mL HP-β-CD solutions ranged from 0 to 150 mg/mL [14, 19]. The mixture solution was stirred at 1000 rpm for 24 h at 37 °C and filtered using 0.22 μm Millipore filtration. The apparent solubility of PM was calculated, and the stability constant (Ks) was calculated as the Higuchi-Connors equation, Equation (a). The Gibbs free energy (ΔG) was calculated as Equation (b), R represents the general gas constant and T represents the Kelvin temperature. (a) Ks=slope/(S0×(1–slope)) (b) ΔG=−RTlnKs

[8] = system: human double-hit lymphoma SU-DHL-6 xenograft tumours; assay type: in vivo
Experimental: as §2
When the experimental period was over, the tumour was weighed and photographed, the main organs and tumours were collected, fixed, and embedded in paraffin for Histological and immunohistochemical analysis.

[9] = system: acetyl histone H4 (Ac-H4); experiment: Immunohistochemical detection of Ac-H4 in tumour tissue; assay type: in vivo, NOD/SCID mice; details: immunostaining after PM treatment, SU-DHL-6 subcutaneous tumour
Description: as §1

[10] = system: Ki-67; experiment: Immunohistochemical detection of Ki-67 in tumour tissue; assay type: in vivo, NOD/SCID mice; details: immunostaining after PM treatment, SU-DHL-6 subcutaneous tumour
Description: as §1

[11] = both sexes, rat, plasma, intravenous administration
[12] = both sexes, rat, plasma, oral administration
[13] = positive control groups, dose column – (RTX 10 mg/kg), 14 days
[14] = positive control groups, dose column – (RTX 10 mg/kg), begin of treatment
[15] = positive control groups, dose column – (RTX 10 mg/kg), end of 14 days treatment

CN(Cc1nc2c(N3CCOCC3)nc(-c3ccc(N)cc3)nc2n1C)c1ncc(C(=O)NO)cn1 [PM, Purinostat mesylate]
Number End/begin ([1]; i.v. 10 mg/kg (PM/HP-β-CD)): 8/8
RTV ([1]; i.v. 10 mg/kg (PM/HP-β-CD)): 6.84^cfi
Tumor Weight (g) X ±SD ([1]; i.v. 10 mg/kg (PM/HP-β-CD)): 1.51±0.49^cfi g
Tumor Weight Inhibition (%) ([1]; i.v. 10 mg/kg (PM/HP-β-CD)): 69.96%
Tumor volume T/C% ([1]; i.v. 10 mg/kg (PM/HP-β-CD)): 30.87%
Body weight (g) X ± SD Begin ([1]; i.v. 10 mg/kg (PM/HP-β-CD)): 22.6 ± 1.7 g
Tumor volume (mm^3) X ±SD Begin ([1]; i.v. 10 mg/kg (PM/HP-β-CD)): 194.6±26.1 mm^3
Body Weight (g) X ±SD End ([1]; i.v. 10 mg/kg (PM/HP-β-CD)): 24.9 ± 1.9 g
Tumor volume (mm^3) X ±SD End ([1]; i.v. 10 mg/kg (PM/HP-β-CD)): 1321.9±317.2 mm^3
animal status / deaths ([1]; oral group): one of the PM oral groups died
Number End/begin ([1]; p.o. 10 mg/kg (PM suspension)): 7/8
RTV ([1]; p.o. 10 mg/kg (PM suspension)): 16.71^a
Tumor Weight (g) X ±SD ([1]; p.o. 10 mg/kg (PM suspension)): 4.57 ± 0.99 g
Tumor Weight Inhibition (%) ([1]; p.o. 10 mg/kg (PM suspension)): 9.16%
Tumor volume T/C% ([1]; p.o. 10 mg/kg (PM suspension)): 75.46%
Body weight (g) X ± SD Begin ([1]; p.o. 10 mg/kg (PM suspension)): 21.6 ± 1.2 g
Tumor volume (mm^3) X ±SD Begin ([1]; p.o. 10 mg/kg (PM suspension)): 199.5±22.5 mm^3
Body Weight (g) X ±SD End ([1]; p.o. 10 mg/kg (PM suspension)): 24.9 ± 3.0 g
Tumor volume (mm^3) X ±SD End ([1]; p.o. 10 mg/kg (PM suspension)): 3300.6±715.1 mm^3
animal status / deaths ([1]; venous group): did not have animals in abnormal status
CL ([2]; p.o.): 7280 ± 3290.7 mL/min/kg
Tmax ([2]; both sexes, rat, plasma, iv): 4.67 min
clearance ([2]; both sexes, rat, plasma, iv): 225 mL/min/kg
half-life ([2]; both sexes, rat, plasma, iv): 20.4 ± 19.7 min
Tmax ([2]; both sexes, rat, plasma, po): 5.67 min
half-life ([2]; both sexes, rat, plasma, po): 97.2 ± 41.5 min
AUC [2, 11]: 837 ± 277 ng·h/mL
Cmax [2, 11]: 3140 ± 1320 ng/mL
AUC [2, 12]: 56.2 ± 24.6 ng·h/mL
Cmax [2, 12]: 49.3 ± 26.4 ng/mL
bioavailability ([2]; both sexes, rat, plasma, oral versus intravenous, read-out: calculated bioavailability): 6.71%
IC50 [3]: 1.88 nM
apoptotic SU-DHL-6 cells ([4]; 3 nM): 14.99%
apoptotic SU-DHL-6 cells ([4]; 6 nM): 55.2%
expression of γH2AX in tumour tissue [5]: increased
Median survival (day) ([6]; PM for Injection 10 mg/kg): 30^bei day
Median survival (day) ([6]; PM for Injection 20 mg/kg): 30 ^bei day
Gibbs free energy [7]: -5.055 kcal/mol
Body weight (g) X ± SD Begin ([8]; mouse, in vivo, iv, 2.5 mg/kg): 22.0 ± 0.3 g
Number End/begin ([8]; mouse, in vivo, iv, 2.5 mg/kg): 7/7
RTV ([8]; mouse, in vivo, iv, 2.5 mg/kg): 14.21^begkmp
Tumour volume (mm^3) X ± SD Begin ([8]; mouse, in vivo, iv, 2.5 mg/kg): 140.3 ± 23.7 mm^3
Tumour volume (mm^3) X ± SD End ([8]; mouse, in vivo, iv, 2.5 mg/kg): 1970.1 ± 638.3 mm^3
Tumour volume T/C% ([8]; mouse, in vivo, iv, 2.5 mg/kg): 54.53%
Tumour weight (g) X ± SD ([8]; mouse, in vivo, iv, 2.5 mg/kg): 2.10 ± 0.98^cekmp g
Tumour weight Inhibition (%) ([8]; mouse, in vivo, iv, 2.5 mg/kg): 57.35%
Body weight (g) X ± SD Begin ([8]; mouse, in vivo, iv, 5 mg/kg): 22.3 ± 0.5 g
Number End/begin ([8]; mouse, in vivo, iv, 5 mg/kg): 7/7
RTV ([8]; mouse, in vivo, iv, 5 mg/kg): 8.26^cfiloq
Tumour volume (mm^3) X ± SD Begin ([8]; mouse, in vivo, iv, 5 mg/kg): 146.2 ± 26.5 mm^3
Tumour volume (mm^3) X ± SD End ([8]; mouse, in vivo, iv, 5 mg/kg): 1150.0 ± 510.6 mm^3
Tumour volume T/C% ([8]; mouse, in vivo, iv, 5 mg/kg): 31.69%
Tumour weight (g) X ± SD ([8]; mouse, in vivo, iv, 5 mg/kg): 1.39 ± 0.47^cfhlnr g
Tumour weight Inhibition (%) ([8]; mouse, in vivo, iv, 5 mg/kg): 71.80%
Body weight (g) X ± SD Begin ([8]; mouse, in vivo, iv, 10 mg/kg): 22.3 ± 0.5 g
Number End/begin ([8]; mouse, in vivo, iv, 10 mg/kg): 7/7
RTV ([8]; mouse, in vivo, iv, 10 mg/kg): 7.39 ^cfiloq
Tumour volume (mm^3) X ± SD Begin ([8]; mouse, in vivo, iv, 10 mg/kg): 150.9 ± 32.6 mm^3
Tumour volume (mm^3) X ± SD End ([8]; mouse, in vivo, iv, 10 mg/kg): 1084.2 ± 502.8 mm^3
Tumour volume T/C% ([8]; mouse, in vivo, iv, 10 mg/kg): 28.37%
Tumour weight (g) X ± SD ([8]; mouse, in vivo, iv, 10 mg/kg): 0.90 ± 0.43^cfilor g
Tumour weight Inhibition (%) ([8]; mouse, in vivo, iv, 10 mg/kg): 81.67%
Body weight (g) X ± SD Begin ([8]; mouse, in vivo, iv, 20 mg/kg): 22.2 ± 0.3 g
Number End/begin ([8]; mouse, in vivo, iv, 20 mg/kg): 7/7
RTV ([8]; mouse, in vivo, iv, 20 mg/kg): 4.31^cfilor
Tumour volume (mm^3) X ± SD Begin ([8]; mouse, in vivo, iv, 20 mg/kg): 158.9 ± 22.6 mm^3
Tumour volume (mm^3) X ± SD End ([8]; mouse, in vivo, iv, 20 mg/kg): 664.3 ± 190.7 mm^3
Tumour volume T/C% ([8]; mouse, in vivo, iv, 20 mg/kg): 16.53%
Tumour weight (g) X ± SD ([8]; mouse, in vivo, iv, 20 mg/kg): 0.73 ± 0.28 ^cfilor g
Tumour weight Inhibition (%) ([8]; mouse, in vivo, iv, 20 mg/kg): 85.20%
expression of Ac-H4 in tumour tissue [9]: increased
expression of Ki-67 in tumour tissue [10]: decreased

Rituximab [RTX, reference compound]
RTV [8, 13]: 24.16
Tumour volume T/C% [8, 13]: 92.71%
Tumour weight (g) X ± SD [8, 13]: 3.47 ± 1.07^ad g
Tumour weight Inhibition (%) [8, 13]: 29.47%
Body weight (g) X ± SD Begin [8, 14]: 22.4 ± 0.4 g
Tumour volume (mm^3) X ± SD Begin [8, 14]: 153.7 ± 33.1 mm^3
Body Weight (g) X ±SD End [8, 15]: 25.1 ± 1.0 g
Tumour volume (mm^3) X ± SD End [8, 15]: 3505.3 ± 917.1 mm^3
Number End/begin ([8]; positive control groups, dose column – (RTX 10 mg/kg), regimens Table 2, 14 days): 7/7

Reference: paper PMC8903780, “Therapeutic efficacy of an injectable formulation of purinostat mesylate in SU-DHL-6 tumour model” (Annals of Medicine, 2022)
